Test results: patent US10363263B2, “Anti-aging compositions and methods for using same” (Prescient Pharma LLC, priority 2015, dated 2019)

How the values were obtained:
[1] = system: normal human colon fibroblast cell line CCD 841 CoN (CRL-1790, ATCC); experiment: Senescence beta-galactosidase staining of aged normal human colon fibroblasts (Examples 1 and 2); format: cell-based; conditions: 48 hours; for effect on beta-galactosidase staining in comparison with non-treated controls: monotherapy, 0.15 μM lithium carbonate or 0.25 mM glycyrrhizic acid; for visible positive beta-galactosidase staining (FIGS. 1-4): visual, light microscope 100×, 0.15 μM lithium carbonate and/or 0.25 mM glycyrrhizic acid
Procedure: Aging-associated beta-galactosidase is widely used as a biomarker of senescence. Here we investigated senescence-associated-beta-galactosidase activity of human colon fibroblast cells by visual assessment.
In this Example, the effect of treatment with lithium and glycyrrhizic acid separately, and as a fixed combination, was evaluated on normal human colon fibroblast cell line CCD 841 CoN (CRL-1790, ATCC).
Group 4 (flasks 10-12, control), the medium was changed to fresh compete EMEM medium without drugs as controls.
FIGS. 1-4 show pictures of the staining results for each of the groups, respectively.
Digital pictures showing the staining results for each of the 12 flasks were then independently examined and scored for percentage of area of green (positive) staining based on pixels, with and without background subtraction.
Higher values reflect more intensive green staining which corresponds to more aged cells.
Group#9 contained complete EMEM medium with glycyrrhizic acid 0.25 mM.
Group#10 contained complete EMEM medium only and was used as a control.
FIGS. 6-15 show pictures of the staining results for each of the groups, respectively.

[2] = system: wild-type N2 Bristol strain of C. elegans; experiment: C. elegans longevity study (Example 4); format: in vivo; conditions: for longevity effect: monotherapy; for Restricted mean Days (survival): control 15.53
Procedure: In this fourth Example, the effect of treatment with lithium and Glycyrrhizic acid separately, and as a fixed combination, was further evaluated on the wild-type N2 Bristol strain of C. elegans. Worm stocks were maintained on nematode growth medium (NGM) dishes containing 10 μg/mL cholesterol (Cat. No. C8667; Sigma-Aldrich, Saint Louis, Mo., USA). Dishes were seeded with OP50 Escherichia coli as a food source. Twelve polystyrene petri dishes (35 mm diameter) were prepared by filling with NGM agar containing […] cholesterol, and 25 μM 5-Fluoro-2′-deoxyuridine to suppress reproduction (FUDR; Cat. No. F0503; Sigma-Aldrich, Saint Louis, Mo., USA). The dishes were seeded with OP50 Escherichia coli as a food source. Duplicate dishes were used for each group. The treatment drug was dissolved in deionized water, and added to the dishes for the groups as explained below: […] Group#5: Glycyrrhizic acid in concentration of 0.25 mM Group#6: untreated (control) NGM-agar treatment plates containing cholesterol (10 μg/mL) and 25 μM 5-Fluoro-2′-deoxyuridine (FUDR; Cat. No. F0503; Sigma-Aldrich, Saint Louis, Mo., USA) to suppress reproduction. […] The survival data for the various groups are also depicted in FIG. 17.

[3] = lithium carbonate 15 or 0.15 μM as in the label, Ga = glycyrrhizic acid 0.25 mM
[4] = lithium carbonate 15 or 0.15 μM as in the label, Ga = glycyrrhizic acid 0.25 mM, listed as Li0.15 uM
[5] = lithium carbonate 15 or 0.15 μM as in the label, Ga = glycyrrhizic acid 0.25 mM, listed as Li15 uM

Row | SMILES | effect on beta-galactosidase staining in comparison with non-treated controls [1] | visible positive beta-galactosidase staining (FIGS. 1-4) [1] | Age in days at 100% mortality [2, 3] | longevity effect [2] | Age in days at 50% mortality [2, 3] | Age in days at 75% mortality [2, 3] | Age in days at 90% mortality [2, 3] | Restricted mean Days (survival) [2, 4] | Restricted mean Days (survival) [2, 5] | Age in days at 25% mortality [2, 4] | Age in days at 25% mortality [2, 5]
1 | CC1(C)[C@@H](O[C@H]2O[C@H](C(=O)O)[C@@H](O)[C@H](O)[C@H]2O[C@@H]2O[C@H](C(=O)O)[C@@H](O)[C@H](O)[C@H]2O)CC[C@]2(C)[C@H]3C(=O)C=C4[C@@H]5C[C@@](C)(C(=O)O)CC[C@]5(C)CC[C@@]4(C)[C@]3(C)CC[C@@H]12 [glycyrrhizic acid, (3β,20β)-20-carboxy-11-oxo-30-norolean-12-en-3-yl 2-O-β-D-glucopyranuronosyl-α-D-glucopyranosiduronic acid] | did not appear to have significant effect | stained positively | 20 days | not observed | – | – | – | – | – | – | –
2 | O=C([O-])[O-].[Li+].[Li+] [lithium carbonate] | did not appear to have significant effect | stained positively | 19 days | not observed | 15 days | 16 days | 18 days | 14.88 days | 14.56 days | 13 days | 14 days
